How the values were obtained:
[1] = molecular target: T1, Type-2 angiotensin II receptor (Homo sapiens, UniProt P50052); type: cell-based; conditions: cho-k1; further: in other assays of this panel Not Active means under 50% inhibition at 10 µM
T1 sequence (P50052 whole entry): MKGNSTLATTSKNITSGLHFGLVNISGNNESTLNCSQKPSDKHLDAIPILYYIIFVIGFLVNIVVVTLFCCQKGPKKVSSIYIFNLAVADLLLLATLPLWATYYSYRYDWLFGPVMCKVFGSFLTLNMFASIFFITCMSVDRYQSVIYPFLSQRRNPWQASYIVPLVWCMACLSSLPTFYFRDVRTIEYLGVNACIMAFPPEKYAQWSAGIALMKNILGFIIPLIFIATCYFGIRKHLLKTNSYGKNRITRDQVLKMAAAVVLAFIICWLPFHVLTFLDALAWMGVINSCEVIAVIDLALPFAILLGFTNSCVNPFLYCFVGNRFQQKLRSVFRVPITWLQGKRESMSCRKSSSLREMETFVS

[2] = molecular target: Sigma non-opioid intracellular receptor 1 (Homo sapiens, UniProt Q99720); experiment: DRUGMATRIX: Sigma1 radioligand binding (ligand: [3H] Haloperidol); type: cell membranes, Jurkat, Membrane; conditions: Not Active = under 50% inhibition at 10 µM
[3] = DRUGMATRIX: Glutamate, NMDA, Phencyclidine radioligand binding (ligand: [3H] TCP); type: cell membranes, Rattus norvegicus, Wistar, Cerebral cortex, Membrane; conditions: Not Active = under 50% inhibition at 10 µM
[4] = molecular target: Histamine H2 receptor (Homo sapiens, UniProt P25021); type: cell membranes, CHO-K1, Membrane; conditions: cho-k1; further: in other assays of this panel Not Active means under 50% inhibition at 10 µM
[5] = molecular target: Melanocortin receptor 3 (Homo sapiens, UniProt P41968); type: cell membranes, HEK293, Membrane; conditions: hek293; further: in other assays of this panel Not Active means under 50% inhibition at 10 µM
[6] = molecular target: Delta-type opioid receptor (Homo sapiens, UniProt P41143); type: cell membranes, Membrane; conditions: hek293; further: in other assays of this panel Not Active means under 50% inhibition at 10 µM
Chain of Delta-type opioid receptor (P41143 whole entry): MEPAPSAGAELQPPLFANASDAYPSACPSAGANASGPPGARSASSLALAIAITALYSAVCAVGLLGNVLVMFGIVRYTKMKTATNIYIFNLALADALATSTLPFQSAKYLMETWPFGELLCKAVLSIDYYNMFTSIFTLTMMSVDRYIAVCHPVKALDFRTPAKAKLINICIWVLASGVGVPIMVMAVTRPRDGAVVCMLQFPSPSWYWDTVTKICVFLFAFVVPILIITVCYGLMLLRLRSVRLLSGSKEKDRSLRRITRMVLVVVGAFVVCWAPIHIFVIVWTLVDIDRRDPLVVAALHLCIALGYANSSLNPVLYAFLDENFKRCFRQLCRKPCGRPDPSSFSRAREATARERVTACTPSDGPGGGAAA

Chain of Histamine H2 receptor (P25021 whole entry): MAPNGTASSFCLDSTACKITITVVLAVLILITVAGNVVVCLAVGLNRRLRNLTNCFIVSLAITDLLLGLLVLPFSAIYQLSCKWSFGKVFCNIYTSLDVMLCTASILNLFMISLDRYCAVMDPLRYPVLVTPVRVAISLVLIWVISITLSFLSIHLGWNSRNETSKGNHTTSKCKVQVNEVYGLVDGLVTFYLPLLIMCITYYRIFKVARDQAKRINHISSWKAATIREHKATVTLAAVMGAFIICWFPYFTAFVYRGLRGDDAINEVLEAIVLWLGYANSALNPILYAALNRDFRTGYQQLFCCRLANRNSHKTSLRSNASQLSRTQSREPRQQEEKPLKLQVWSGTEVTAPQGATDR
Chain of Melanocortin receptor 3 (P41968 whole entry): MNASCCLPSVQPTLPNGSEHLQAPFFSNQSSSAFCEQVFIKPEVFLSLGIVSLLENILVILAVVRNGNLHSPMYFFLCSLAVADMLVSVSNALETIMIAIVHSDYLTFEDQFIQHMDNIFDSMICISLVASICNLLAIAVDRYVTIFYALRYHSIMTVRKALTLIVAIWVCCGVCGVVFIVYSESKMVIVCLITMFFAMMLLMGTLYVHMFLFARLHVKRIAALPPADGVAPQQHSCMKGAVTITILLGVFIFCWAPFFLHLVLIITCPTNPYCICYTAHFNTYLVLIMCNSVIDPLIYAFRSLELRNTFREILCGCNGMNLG
Chain of Sigma non-opioid intracellular receptor 1 (Q99720 whole entry): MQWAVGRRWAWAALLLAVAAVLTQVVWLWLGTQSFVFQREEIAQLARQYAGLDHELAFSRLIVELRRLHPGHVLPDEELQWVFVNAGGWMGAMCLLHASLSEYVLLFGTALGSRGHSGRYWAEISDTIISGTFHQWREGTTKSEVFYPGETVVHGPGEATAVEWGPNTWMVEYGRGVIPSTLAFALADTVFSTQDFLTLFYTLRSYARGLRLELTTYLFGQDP

Row | Structure (SMILES) | IC50 [1] | IC50 ([2]; jurkat) | IC50 [3] | Ki [3] | IC50 [4] | IC50 [5] | IC50 [6] | IC50 ([2]; read-out: IC50) [µM] | Ki ([2]; read-out: Ki) [µM]
1 | CC[C@H]1CN2CCc3cc(OC)c(OC)cc3[C@@H]2C[C@@H]1C[C@H]1NCCc2cc(OC)c(OC)cc21 [EMETINE] | Not Active | Not Active | Not Active | Not Active | Not Active | Not Active | Not Active | – | –
2 | COc1cc([C@@H]2c3cc4c(cc3[C@@H](O[C@@H]3O[C@@H]5CO[C@@H](C)O[C@H]5[C@H](O)[C@H]3O)[C@H]3COC(=O)[C@H]23)OCO4)cc(OC)c1O [ETOPOSIDE] | Not Active | Not Active | Not Active | Not Active | Not Active | Not Active | Not Active | – | –
3 | CC(C)(C)NC(=O)[C@H]1CC[C@H]2[C@@H]3CC[C@H]4NC(=O)C=C[C@]4(C)[C@H]3CC[C@]12C [FINASTERIDE] | Not Active | Not Active | Not Active | Not Active | Not Active | Not Active | Not Active | – | –
4 | COc1ccc2c3c1O[C@H]1C[C@@H](O)C=C[C@@]31CCN(C)C2 [GALANTAMINE] | Not Active | Not Active | Not Active | Not Active | Not Active | Not Active | Not Active | – | –
5 | CC(C)=CCC/C(C)=C/CO [GERANIOL] | Not Active | Not Active | Not Active | Not Active | Not Active | Not Active | Not Active | – | –
6 | Oc1c(Cl)cc(Cl)c(Cl)c1Cc1c(O)c(Cl)cc(Cl)c1Cl [HEXACHLOROPHENE] | Not Active | Not Active | Not Active | Not Active | Not Active | Not Active | Not Active | – | –
7 | CC(=O)[C@@]1(O)CC[C@H]2[C@@H]3CCC4=CC(=O)CC[C@]4(C)[C@H]3CC[C@@]21C [HYDROXYPROGESTERONE] | Not Active | Not Active | Not Active | Not Active | Not Active | Not Active | Not Active | – | –
8 | COC1=C(OC)C(=O)C(CCCCCCCCCCO)=C(C)C1=O [IDEBENONE] | Not Active | Not Active | Not Active | Not Active | Not Active | Not Active | Not Active | – | –
9 | Cc1c(OCC(F)(F)F)ccnc1C[S+]([O-])c1nc2ccccc2[nH]1 (stereo not given) [LANSOPRAZOLE] | Not Active | Not Active | Not Active | Not Active | Not Active | Not Active | Not Active | – | –
10 | COc1ccc2[nH]cc(CCNC(C)=O)c2c1 [MELATONIN] | Not Active | Not Active | Not Active | Not Active | Not Active | Not Active | Not Active | – | –
11 | O=C(N/N=C/c1ccc([N+](=O)[O-])o1)c1cc([N+](=O)[O-])cc([N+](=O)[O-])c1O [NIFURSOL] | Not Active | Not Active | Not Active | Not Active | Not Active | Not Active | Not Active | – | –
12 | CC(=O)O[C@H]1C(=O)[C@@]2(C)[C@H]([C@H](OC(=O)c3ccccc3)[C@]3(O)C[C@H](OC(=O)[C@H](O)[C@@H](NC(=O)c4ccccc4)c4ccccc4)C(C)=C1C3(C)C)[C@]1(OC(C)=O)CO[C@@H]1C[C@@H]2O [PACLITAXEL] | Not Active | Not Active | Not Active | Not Active | Not Active | Not Active | – | – | –
13 | CC(C)NCC(O)COc1cccc2[nH]ccc12 (stereo not given) [PINDOLOL] | Not Active | Not Active | Not Active | Not Active | Not Active | Not Active | Not Active | – | –
14 | CCCNCC(O)COc1ccccc1C(=O)CCc1ccccc1 (stereo not given) [PROPAFENONE] | Not Active | – | Not Active | Not Active | Not Active | Not Active | Not Active | 2.61 | 1.1
15 | CC(C)c1cccc(C(C)C)c1O [PROPOFOL] | Not Active | Not Active | Not Active | Not Active | Not Active | Not Active | Not Active | – | –

Source: ChEMBL document CHEMBL1909046, “DrugMatrix in vitro pharmacology data”
